What was measured:
kinases (468) [1] = molecular target: kinases (468) (Homo sapiens, UniProt P35916); settings: FLT4; 1000 nM
kinases (468) [2] = molecular target: kinases (468) (Homo sapiens, UniProt P51957); settings: NEK4; 1000 nM
kinases (468) [3] = molecular target: kinases (468) (Homo sapiens, UniProt P50613); settings: CDK7; 1000 nM
kinases (468) [4] = molecular target: kinases (468) (Homo sapiens, UniProt Q16512); settings: PKN1; 1000 nM
kinases (468) [5] = molecular target: kinases (468) (Homo sapiens, UniProt P19784); settings: CSNK2A2; 1000 nM
kinases (468) [6] = molecular target: kinases (468) (Homo sapiens, UniProt P57058); settings: HUNK; 1000 nM
kinases (468) (Homo sapiens, UniProt P57058), sequence (P57058 whole entry): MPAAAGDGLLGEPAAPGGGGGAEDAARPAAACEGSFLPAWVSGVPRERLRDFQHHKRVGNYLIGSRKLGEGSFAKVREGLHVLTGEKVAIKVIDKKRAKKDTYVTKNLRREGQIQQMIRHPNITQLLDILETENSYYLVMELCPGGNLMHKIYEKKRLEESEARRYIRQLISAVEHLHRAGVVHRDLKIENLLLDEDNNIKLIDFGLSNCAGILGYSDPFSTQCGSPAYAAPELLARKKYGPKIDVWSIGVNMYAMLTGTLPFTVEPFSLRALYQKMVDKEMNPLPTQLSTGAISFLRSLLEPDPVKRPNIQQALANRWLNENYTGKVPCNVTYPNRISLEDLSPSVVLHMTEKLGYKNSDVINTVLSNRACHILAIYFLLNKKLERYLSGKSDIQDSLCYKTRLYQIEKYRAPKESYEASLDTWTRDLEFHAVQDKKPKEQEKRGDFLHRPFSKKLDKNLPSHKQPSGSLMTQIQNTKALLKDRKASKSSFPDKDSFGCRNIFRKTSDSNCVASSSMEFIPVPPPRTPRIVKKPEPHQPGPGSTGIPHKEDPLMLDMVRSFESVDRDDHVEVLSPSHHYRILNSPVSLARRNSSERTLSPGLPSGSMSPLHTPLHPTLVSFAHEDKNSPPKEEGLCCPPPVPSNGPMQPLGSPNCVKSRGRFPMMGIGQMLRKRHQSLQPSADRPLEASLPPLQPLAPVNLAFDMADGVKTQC

kinases (468) [7] = molecular target: kinases (468) (Homo sapiens, UniProt O00238); settings: BMPR1B; 1000 nM
kinases (468) [8] = molecular target: kinases (468) (Homo sapiens, UniProt P07949, M918T); settings: kinase RET(M918T) (Entrez RET); compound concentration 1000 nM
kinases (468) [9] = molecular target: kinases (468) (Homo sapiens, UniProt Q9NYL2); settings: kinase ZAK (Entrez ZAK); compound concentration 1000 nM
kinases (468) (Homo sapiens, UniProt Q9NYL2), sequence (Q9NYL2 whole entry): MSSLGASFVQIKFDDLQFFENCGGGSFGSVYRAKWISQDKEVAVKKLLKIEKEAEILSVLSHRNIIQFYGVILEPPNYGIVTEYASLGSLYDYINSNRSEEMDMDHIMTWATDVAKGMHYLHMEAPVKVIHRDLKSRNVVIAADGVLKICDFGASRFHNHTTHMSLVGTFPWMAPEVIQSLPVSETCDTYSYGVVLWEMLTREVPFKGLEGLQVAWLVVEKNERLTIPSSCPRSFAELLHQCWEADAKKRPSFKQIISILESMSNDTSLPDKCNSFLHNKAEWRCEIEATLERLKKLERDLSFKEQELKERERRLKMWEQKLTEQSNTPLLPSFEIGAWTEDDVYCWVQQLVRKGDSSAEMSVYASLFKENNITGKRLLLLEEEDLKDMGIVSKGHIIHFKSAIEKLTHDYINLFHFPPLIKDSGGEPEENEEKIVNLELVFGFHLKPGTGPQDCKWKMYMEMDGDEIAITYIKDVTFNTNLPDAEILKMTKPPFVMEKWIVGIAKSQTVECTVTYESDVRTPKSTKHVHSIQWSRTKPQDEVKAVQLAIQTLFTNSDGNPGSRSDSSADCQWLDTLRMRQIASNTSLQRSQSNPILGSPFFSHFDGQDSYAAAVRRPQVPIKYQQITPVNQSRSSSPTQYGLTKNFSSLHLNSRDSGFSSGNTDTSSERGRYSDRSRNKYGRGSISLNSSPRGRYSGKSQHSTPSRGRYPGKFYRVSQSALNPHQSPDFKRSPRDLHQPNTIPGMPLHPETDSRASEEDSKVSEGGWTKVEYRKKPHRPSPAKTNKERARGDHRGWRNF

kinases (468) [10] = molecular target: kinases (468) (Homo sapiens, UniProt P45983); settings: JNK1 (MAPK8); 1000 nM
kinases (468) [11] = molecular target: kinases (468) (Homo sapiens, UniProt Q86V86); settings: PIM3; 1000 nM
kinases (468) [12] = molecular target: kinases (468) (Homo sapiens, UniProt O43353); settings: kinase RIPK2 (Entrez RIPK2); compound concentration 1000 nM
kinases (468) [13] = molecular target: kinases (468) (Homo sapiens, UniProt O95819); settings: MAP4K4; 1000 nM
kinases (468) (Homo sapiens, UniProt O95819), sequence (O95819 whole entry): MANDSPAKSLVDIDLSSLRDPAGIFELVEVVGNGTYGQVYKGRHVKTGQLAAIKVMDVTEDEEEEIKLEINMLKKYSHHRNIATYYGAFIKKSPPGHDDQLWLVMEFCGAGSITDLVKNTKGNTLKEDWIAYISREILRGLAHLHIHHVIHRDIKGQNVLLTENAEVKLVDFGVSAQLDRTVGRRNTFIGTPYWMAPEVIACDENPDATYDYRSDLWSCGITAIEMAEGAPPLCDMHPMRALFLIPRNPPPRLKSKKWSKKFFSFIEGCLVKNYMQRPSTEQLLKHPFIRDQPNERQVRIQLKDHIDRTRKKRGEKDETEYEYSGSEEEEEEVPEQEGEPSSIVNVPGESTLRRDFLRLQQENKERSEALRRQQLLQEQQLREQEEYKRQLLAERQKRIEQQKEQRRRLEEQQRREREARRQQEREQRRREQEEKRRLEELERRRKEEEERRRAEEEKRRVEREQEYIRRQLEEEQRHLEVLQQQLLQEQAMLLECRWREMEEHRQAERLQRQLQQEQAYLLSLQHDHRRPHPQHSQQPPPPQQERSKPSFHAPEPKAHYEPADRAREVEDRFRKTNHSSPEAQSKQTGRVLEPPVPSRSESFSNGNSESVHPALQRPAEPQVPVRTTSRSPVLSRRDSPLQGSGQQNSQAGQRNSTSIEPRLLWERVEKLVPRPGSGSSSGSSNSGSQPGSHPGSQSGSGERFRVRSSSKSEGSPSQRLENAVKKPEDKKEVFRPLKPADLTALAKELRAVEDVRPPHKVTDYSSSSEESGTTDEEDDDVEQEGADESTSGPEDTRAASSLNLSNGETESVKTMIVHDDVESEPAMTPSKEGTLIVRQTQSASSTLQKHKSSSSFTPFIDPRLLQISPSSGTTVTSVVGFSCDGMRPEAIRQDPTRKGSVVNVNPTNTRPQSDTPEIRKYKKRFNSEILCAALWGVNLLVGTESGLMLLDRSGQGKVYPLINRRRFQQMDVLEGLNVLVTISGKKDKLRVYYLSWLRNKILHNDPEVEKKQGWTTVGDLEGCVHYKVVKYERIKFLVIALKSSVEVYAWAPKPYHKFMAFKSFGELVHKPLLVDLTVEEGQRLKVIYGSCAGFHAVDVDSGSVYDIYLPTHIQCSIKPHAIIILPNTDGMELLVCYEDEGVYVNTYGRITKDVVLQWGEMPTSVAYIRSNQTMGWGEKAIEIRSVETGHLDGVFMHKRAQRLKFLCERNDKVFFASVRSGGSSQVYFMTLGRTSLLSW

kinases (468) [14] = molecular target: kinases (468) (Homo sapiens, UniProt P04629); settings: kinase TRKA (Entrez NTRK1); compound concentration 1000 nM
kinases (468) [15] = molecular target: kinases (468) (Homo sapiens, UniProt Q8WU08); settings: kinase YANK1 (Entrez STK32A); compound concentration 1000 nM
kinases (468) (Homo sapiens, UniProt Q8WU08), sequence (Q8WU08 whole entry): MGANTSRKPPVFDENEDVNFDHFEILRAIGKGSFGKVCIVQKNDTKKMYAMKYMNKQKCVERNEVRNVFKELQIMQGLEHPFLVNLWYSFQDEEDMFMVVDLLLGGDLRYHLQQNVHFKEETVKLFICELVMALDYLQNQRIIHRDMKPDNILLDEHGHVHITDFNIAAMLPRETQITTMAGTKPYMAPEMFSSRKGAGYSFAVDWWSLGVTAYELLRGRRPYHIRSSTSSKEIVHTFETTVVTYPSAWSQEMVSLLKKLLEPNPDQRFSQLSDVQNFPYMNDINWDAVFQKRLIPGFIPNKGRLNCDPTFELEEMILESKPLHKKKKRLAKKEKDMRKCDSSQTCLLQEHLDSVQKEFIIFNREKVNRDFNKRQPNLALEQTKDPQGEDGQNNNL

kinases (468) [16] = molecular target: kinases (468) (Homo sapiens, UniProt Q00532); settings: CDKL1; 1000 nM
kinases (468) (Homo sapiens, UniProt Q00532), sequence (Q00532 whole entry): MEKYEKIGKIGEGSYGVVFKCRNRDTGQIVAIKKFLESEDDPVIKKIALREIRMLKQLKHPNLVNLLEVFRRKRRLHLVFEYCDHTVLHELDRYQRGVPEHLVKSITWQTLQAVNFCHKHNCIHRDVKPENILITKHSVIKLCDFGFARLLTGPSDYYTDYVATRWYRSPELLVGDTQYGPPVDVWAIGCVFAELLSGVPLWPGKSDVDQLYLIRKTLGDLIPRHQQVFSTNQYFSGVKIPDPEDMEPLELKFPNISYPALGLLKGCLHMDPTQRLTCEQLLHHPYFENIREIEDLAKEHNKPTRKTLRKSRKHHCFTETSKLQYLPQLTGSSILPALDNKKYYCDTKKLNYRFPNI

kinases (468) [17] = molecular target: kinases (468) (Homo sapiens, UniProt O15111); settings: IKK-alpha (CHUK); 1000 nM
kinases (468) [18] = molecular target: kinases (468) (Homo sapiens, UniProt P52564); settings: MEK6 (MAP2K6); 1000 nM
kinases (468) (Homo sapiens, UniProt P52564), sequence (P52564 whole entry): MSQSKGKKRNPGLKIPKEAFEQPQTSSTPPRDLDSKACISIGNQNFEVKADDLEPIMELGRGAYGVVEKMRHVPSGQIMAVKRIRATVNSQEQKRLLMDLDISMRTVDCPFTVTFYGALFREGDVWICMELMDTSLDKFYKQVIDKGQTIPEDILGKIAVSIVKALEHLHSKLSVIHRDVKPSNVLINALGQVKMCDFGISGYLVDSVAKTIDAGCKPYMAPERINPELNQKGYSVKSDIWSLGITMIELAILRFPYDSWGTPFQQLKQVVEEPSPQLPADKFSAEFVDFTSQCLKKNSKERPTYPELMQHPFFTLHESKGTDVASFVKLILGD

kinases (468) [19] = molecular target: kinases (468) (Homo sapiens, UniProt Q9BRS2); settings: kinase RIOK1 (Entrez RIOK1); compound concentration 1000 nM
kinases (468) [20] = molecular target: kinases (468) (Homo sapiens, UniProt Q8NFD2); settings: ANKK1; 1000 nM
kinases (468) (Homo sapiens, UniProt Q8NFD2), sequence (Q8NFD2 whole entry): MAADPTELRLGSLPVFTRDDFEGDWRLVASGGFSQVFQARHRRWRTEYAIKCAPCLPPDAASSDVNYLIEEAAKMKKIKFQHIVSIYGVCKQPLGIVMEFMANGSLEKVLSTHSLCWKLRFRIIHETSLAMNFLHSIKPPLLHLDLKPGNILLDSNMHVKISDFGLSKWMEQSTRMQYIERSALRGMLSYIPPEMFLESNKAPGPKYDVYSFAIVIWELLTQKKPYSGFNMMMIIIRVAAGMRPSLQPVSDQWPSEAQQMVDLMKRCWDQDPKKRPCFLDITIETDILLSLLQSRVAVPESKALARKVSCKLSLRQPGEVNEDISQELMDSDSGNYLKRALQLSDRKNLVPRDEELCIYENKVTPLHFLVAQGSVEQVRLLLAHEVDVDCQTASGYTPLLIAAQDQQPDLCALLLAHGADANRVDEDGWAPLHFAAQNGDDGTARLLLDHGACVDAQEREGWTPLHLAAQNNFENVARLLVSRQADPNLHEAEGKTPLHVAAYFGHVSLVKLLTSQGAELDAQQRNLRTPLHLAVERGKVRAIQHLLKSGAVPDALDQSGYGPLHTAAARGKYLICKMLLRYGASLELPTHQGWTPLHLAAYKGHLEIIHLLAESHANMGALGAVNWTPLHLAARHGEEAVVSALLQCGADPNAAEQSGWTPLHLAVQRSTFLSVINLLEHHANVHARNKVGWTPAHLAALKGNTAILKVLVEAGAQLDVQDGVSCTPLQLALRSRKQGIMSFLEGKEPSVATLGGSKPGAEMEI

kinases (468) [21] = molecular target: kinases (468) (Homo sapiens, UniProt Q9Y616); settings: IRAK3; 1000 nM
kinases (468) [22] = molecular target: kinases (468) (Homo sapiens, UniProt Q8TD08); settings: ERK8 (MAPK15); 1000 nM
kinases (468) [23] = molecular target: kinases (468) (Homo sapiens, UniProt P49761); settings: CLK3; 1000 nM
kinases (468) [24] = molecular target: kinases (468) (Homo sapiens, UniProt P42336, E542K); settings: PIK3CA(E542K); 1000 nM
kinases (468) [25] = molecular target: kinases (468) (Homo sapiens, UniProt Q9NRH2); settings: kinase SNRK (Entrez SNRK); compound concentration 1000 nM
kinases (468) [26] = molecular target: kinases (468) (Homo sapiens, UniProt P10721, A829P); settings: KIT(A829P); 1000 nM
kinases (468) [27] = molecular target: kinases (468) (Homo sapiens, UniProt Q9UQ88); settings: CDC2L2; 1000 nM
kinases (468) [28] = molecular target: kinases (468) (Homo sapiens, UniProt P07949, V804L); settings: kinase RET(V804L) (Entrez RET); compound concentration 1000 nM
kinases (468) [29] = molecular target: kinases (468) (Homo sapiens, UniProt P08069); settings: IGF1R; 1000 nM
kinases (468) [30] = molecular target: kinases (468) (Homo sapiens, UniProt P14616); settings: INSRR; 1000 nM
kinases (468) [31] = molecular target: kinases (468) (Homo sapiens, UniProt Q8IYT8); settings: kinase ULK2 (Entrez ULK2); compound concentration 1000 nM
kinases (468) [32] = molecular target: kinases (468) (Homo sapiens, UniProt P08581, M1250T); settings: MET(M1250T); 1000 nM
kinases (468) [33] = molecular target: kinases (468) (Homo sapiens, UniProt Q00536); settings: PCTK1 (CDK16); 1000 nM
kinases (468) [34] = molecular target: kinases (468) (Homo sapiens, UniProt P41743); settings: PRKCI; 1000 nM

kinases (468) (Homo sapiens, UniProt P50613), sequence (P50613 whole entry): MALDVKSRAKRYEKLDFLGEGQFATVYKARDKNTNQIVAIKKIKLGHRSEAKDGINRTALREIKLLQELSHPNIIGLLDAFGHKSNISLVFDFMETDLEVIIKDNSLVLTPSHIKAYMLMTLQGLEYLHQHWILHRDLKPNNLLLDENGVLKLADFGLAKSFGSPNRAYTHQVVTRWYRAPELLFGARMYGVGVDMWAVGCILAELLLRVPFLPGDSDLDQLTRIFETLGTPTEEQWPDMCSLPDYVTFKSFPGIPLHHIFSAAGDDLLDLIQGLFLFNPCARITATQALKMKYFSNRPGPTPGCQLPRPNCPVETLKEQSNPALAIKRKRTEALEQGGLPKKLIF

## C[C@H]1C[C@@H](O)CN(c2ncc(Cl)c(Nc3ccc4c(c3)c3c(c(=O)n4C)OCC(F)(F)[C@H](C4CC4)N3)n2)C1 [CCT373566_9A]
Kinases (468) [1]
  Percent Control: 100%
Kinases (468) [2]
  Percent Control: 91%
Kinases (468) [3]
  Percent Control: 93%
Kinases (468) [4]
  Percent Control: 100%
Kinases (468) [5]
  Percent Control: 100%
Kinases (468) [6]
  Percent Control: 100%
Kinases (468) [7]
  Percent Control: 97%
Kinases (468) [8]
  Percent Control: 100%
Kinases (468) [9]
  Percent Control: 98%
Kinases (468) [10]
  Percent Control: 85%
Kinases (468) [11]
  Percent Control: 100%
Kinases (468) [12]
  Percent Control: 100%
Kinases (468) [13]
  Percent Control: 87%
Kinases (468) [14]
  Percent Control: 100%
Kinases (468) [15]
  Percent Control: 98%
Kinases (468) [16]
  Percent Control: 97%
Kinases (468) [17]
  Percent Control: 99%
Kinases (468) [18]
  Percent Control: 89%
Kinases (468) [19]
  Percent Control: 78%
Kinases (468) [20]
  Percent Control: 95%
Kinases (468) [21]
  Percent Control: 100%
Kinases (468) [22]
  Percent Control: 95%
Kinases (468) [23]
  Percent Control: 97%
Kinases (468) [24]
  Percent Control: 83%
Kinases (468) [25]
  Percent Control: 93%
Kinases (468) [26]
  Percent Control: 100%
Kinases (468) [27]
  Percent Control: 97%
Kinases (468) [28]
  Percent Control: 100%
Kinases (468) [29]
  Percent Control: 100%
Kinases (468) [30]
  Percent Control: 100%
Kinases (468) [31]
  Percent Control: 100%
Kinases (468) [32]
  Percent Control: 100%
Kinases (468) [33]
  Percent Control: 100%
Kinases (468) [34]
  Percent Control: 88%

Source: PMC9234961 (Journal of Medicinal Chemistry, 2022)
